Measurements from PMC6271825, “Synthesis and Cytotoxic Activity Evaluation of Novel Arylpiperazine Derivatives on Human Prostate Cancer Cell Lines” (Molecules, 2014).
Structures can show the parent of a compound that is named as a salt.

Legend:
LNCaP cells = assay: CCK-8 in vitro cytotoxicity assay, LNCaP; format: cell-based; conditions: Homo sapiens, LNCaP, 24 h, human prostate cancer cell line LNCaP, CCK-8, 24 h exposure, mean ± SD of three experiments
Procedure: (§1) The synthesized target compounds 5 to 29 were evaluated for their in vitro cytotoxic activities against the three human prostate cancer cell lines (PC-3, LNCaP, and DU145), and compared with their effects on human prostate epithelial cell line RWPE-1 by CCK-8 assay.
(§2) PC-3 and RWPE-1 cells were cultured in Dulbecco’s modification Eagle’s medium (DMEM, Invitrogen, Carlsbad, CA, USA) supplemented with 10% fetal bovine serum (FBS, Hyclone, Logan, UT, USA), 100 U/mL penicillin and 0.1 mg/mL streptomycin (Invitrogen). DU145 cells were cultured in RPMI1640 media supplemented with 10% fetal bovine serum (FBS, Hyclone), 100 U/mL penicillin and 0.1 mg/mL streptomycin (Invitrogen). LNCaP cells were cultured in F12 media supplemented with 10% fetal bovine serum (FBS, Hyclone), 100 U/mL penicillin and 0.1 mg/mL streptomycin (Invitrogen). The cells were incubated at 37 °C in a humidified atmosphere with 5% CO2.
(§3) Cell proliferation was measured with the Cell Counting Kit-8 (CCK-8) assay kit (Dojindo Corp., Kumamoto, Japan). Cells were harvested during logarithmic growth phase and seeded in 96-well plates at a density of 1 × 10^5 cells/mL, and cultured at 37 °C in a humidified incubator (5% CO2) for 24 h, followed by exposure to various concentrations of compounds tested for 24 h. Subsequently 10 μL of CCK-8 (Dojindo) was added to each well, the cells were then incubated for an additional 1 h at 37 °C to convert WST-8 into formazan. Cell growth inhibition was determined by measuring the absorbance (Abs) at λ = 450 nm using amicroplate reader. Three independent experiments were performed. Cell growth inhibition was calculated according to the following equation: Growth inhibition = (1 − OD of treated cells/OD of control cells) × 100%
(§4) The half maximal inhibitory concentrations (IC50) were obtained from linear regression analysis of the concentration-response curves plotted for each tested compound.

RWPE-1 cells = assay: CCK-8 in vitro cytotoxicity assay, RWPE-1 normal prostate epithelial cells; format: cell-based; conditions: human prostate epithelial cell line RWPE-1 (normal), CCK-8, 24 h exposure, mean ± SD of three experiments
Procedure: as §1, §2, §3, §4

PC-3 cells = assay: CCK-8 in vitro cytotoxicity assay, PC-3; format: cell-based; conditions: human prostate cancer cell line PC-3, CCK-8, 24 h exposure, mean ± SD of three experiments
Procedure: as §1, §2, §3, §4

DU145 cells = assay: CCK-8 in vitro cytotoxicity assay, DU145; format: cell-based; conditions: DU-145; human prostate cancer cell line DU145, CCK-8, 24 h exposure, mean ± SD of three experiments
Procedure: as §1, §2, §3, §4

SMILES	melting point [°C]	IC50 (LNCaP cells) [µM]	IC50 (RWPE-1 cells) [µM]	IC50 (PC-3 cells) [µM]	IC50 (DU145 cells) [µM]
c1ccc(N2CCN(CCc3ccc(COc4ccc5c(c4)OCO5)cc3)CC2)cc1 (as salt: HCl) [Compound 5, 1-(2-(4-((Benzo[d][1,3]dioxol-5-yloxy)methyl)phenyl)ethyl)-4-phenylpiperazine]	195 to 196	–	–	–	–
c1ccc(CN2CCN(CCc3ccc(COc4ccc5c(c4)OCO5)cc3)CC2)cc1 (as salt: HCl) [Compound 6, 1-(2-(4-((Benzo[d][1,3]dioxol-5-yloxy)methyl)phenyl)ethyl)-4-benzylpiperazine]	177 to 178	–	–	–	–
c1ccc(N2CCN(CCc3ccc(COc4ccc5c(c4)OCO5)cc3)CC2)nc1 (as salt: HCl) [Compound 7, 1-(2-(4-((Benzo[d][1,3]dioxol-5-yloxy)methyl)phenyl)ethyl)-4-(pyridin-2-yl)piperazine]	185 to 186	–	–	–	–
c1cnc(N2CCN(CCc3ccc(COc4ccc5c(c4)OCO5)cc3)CC2)nc1 (as salt: HCl) [Compound 8, 2-(4-(2-(4-((Benzo[d][1,3]dioxol-5-yloxy)methyl)phenyl)ethyl)piperazin-1-yl)pyrimidine]	181 to 182	–	–	–	–
Cc1ccccc1N1CCN(CCc2ccc(COc3ccc4c(c3)OCO4)cc2)CC1 (as salt: HCl) [Compound 9, 1-(2-(4-((Benzo[d][1,3]dioxol-5-yloxy)methyl)phenyl)ethyl)-4-o-tolylpiperazine]	202 to 203	–	–	–	–
Cc1ccc(N2CCN(CCc3ccc(COc4ccc5c(c4)OCO5)cc3)CC2)cc1 (as salt: HCl) [Compound 10, 1-(2-(4-((Benzo[d][1,3]dioxol-5-yloxy)methyl)phenyl)ethyl)-4-p-tolylpiperazine]	184 to 185	–	–	–	–
Cc1cccc(N2CCN(CCc3ccc(COc4ccc5c(c4)OCO5)cc3)CC2)c1 (as salt: HCl) [Compound 11, 1-(2-(4-((Benzo[d][1,3]dioxol-5-yloxy)methyl)phenyl)ethyl)-4-m-tolylpiperazine]	171 to 172	–	–	–	–
COc1ccccc1N1CCN(CCc2ccc(COc3ccc4c(c3)OCO4)cc2)CC1 (as salt: HCl) [Compound 12, 1-(2-(4-((Benzo[d][1,3]dioxol-5-yloxy)methyl)phenyl)ethyl)-4-(2-methoxyphenyl)piperazine]	173 to 174	–	–	–	–
COc1ccc(N2CCN(CCc3ccc(COc4ccc5c(c4)OCO5)cc3)CC2)cc1 (as salt: HCl) [Compound 13, 1-(2-(4-((Benzo[d][1,3]dioxol-5-yloxy)methyl)phenyl)ethyl)-4-(4-methoxyphenyl)piperazine]	174 to 175	–	–	–	–
COc1cccc(N2CCN(CCc3ccc(COc4ccc5c(c4)OCO5)cc3)CC2)c1 (as salt: HCl) [Compound 14, 1-(2-(4-((Benzo[d][1,3]dioxol-5-yloxy)methyl)phenyl)ethyl)-4-(3-methoxyphenyl)piperazine]	171 to 172	–	–	–	–
Fc1ccccc1N1CCN(CCc2ccc(COc3ccc4c(c3)OCO4)cc2)CC1 (as salt: HCl) [Compound 15, 1-(2-(4-((Benzo[d][1,3]dioxol-5-yloxy)methyl)phenyl)ethyl)-4-(2-fluorophenyl)piperazine]	187 to 188	–	–	–	–
Fc1ccc(N2CCN(CCc3ccc(COc4ccc5c(c4)OCO5)cc3)CC2)cc1 (as salt: HCl) [Compound 16, 1-(2-(4-((Benzo[d][1,3]dioxol-5-yloxy)methyl)phenyl)ethyl)-4-(4-fluorophenyl)piperazine]	196 to 197	–	–	–	–
Fc1ccc(N2CCN(CCc3ccc(COc4ccc5c(c4)OCO5)cc3)CC2)c(F)c1 (as salt: HCl) [Compound 17, 1-(2-(4-((Benzo[d][1,3]dioxol-5-yloxy)methyl)phenyl)ethyl)-4-(2,4-difluorophenyl)piperazine]	169 to 170	–	–	–	–
Fc1ccc(N2CCN(CCc3ccc(COc4ccc5c(c4)OCO5)cc3)CC2)c(F)c1 [Compound 17, 1-(2-(4-((Benzo[d][1,3]dioxol-5-yloxy)methyl)phenyl)ethyl)-4-(2,4-difluorophenyl)piperazine]	–	26.8 ± 1	23.9 ± 0.75	> 50	26.8 ± 0.92
N#Cc1ccc(N2CCN(CCc3ccc(COc4ccc5c(c4)OCO5)cc3)CC2)c(F)c1 [Compound 18, 4-(4-(2-(4-((Benzo[d][1,3]dioxol-5-yloxy)methyl)phenyl)ethyl)piperazin-1-yl)-3-fluorobenzonitrile]	–	13.1 ± 0.51	> 50	26.9 ± 1	> 50
Clc1ccccc1N1CCN(CCc2ccc(COc3ccc4c(c3)OCO4)cc2)CC1 [Compound 19, 1-(2-(4-((Benzo[d][1,3]dioxol-5-yloxy)methyl)phenyl)ethyl)-4-(2-chlorophenyl)piperazine]	–	26.6 ± 0.4	29.9 ± 0.8	> 50	> 50
Clc1ccc(N2CCN(CCc3ccc(COc4ccc5c(c4)OCO5)cc3)CC2)cc1 [Compound 20, 1-(2-(4-((Benzo[d][1,3]dioxol-5-yloxy)methyl)phenyl)ethyl)-4-(4-chlorophenyl)piperazine]	–	> 50	> 50	> 50	> 50
Clc1cccc(N2CCN(CCc3ccc(COc4ccc5c(c4)OCO5)cc3)CC2)c1 [Compound 21, 1-(2-(4-((Benzo[d][1,3]dioxol-5-yloxy)methyl)phenyl)ethyl)-4-(3-chlorophenyl)piperazine]	–	25.3 ± 1.55	> 50	> 50	> 50
Clc1cccc(N2CCN(CCc3ccc(COc4ccc5c(c4)OCO5)cc3)CC2)c1Cl [Compound 22, 1-(2-(4-((Benzo[d][1,3]dioxol-5-yloxy)methyl)phenyl)ethyl)-4-(2,3-dichlorophenyl)piperazine]	–	39.4 ± 0.54	> 50	> 50	> 50
COc1ccc(Cl)cc1N1CCN(CCc2ccc(COc3ccc4c(c3)OCO4)cc2)CC1 [Compound 23, 1-(2-(4-((Benzo[d][1,3]dioxol-5-yloxy)methyl)phenyl)ethyl)-4-(5-chloro-2-methoxyphenyl)piperazine]	–	33.2 ± 2.69	35.9 ± 1.25	> 50	> 50
Brc1ccc(N2CCN(CCc3ccc(COc4ccc5c(c4)OCO5)cc3)CC2)cc1 [Compound 24, 1-(2-(4-((Benzo[d][1,3]dioxol-5-yloxy)methyl)phenyl)ethyl)-4-(4-bromophenyl)piperazine]	–	19.9 ± 1.01	> 50	> 50	> 50
FC(F)(F)c1ccccc1N1CCN(CCc2ccc(COc3ccc4c(c3)OCO4)cc2)CC1 [Compound 25, 1-(2-(4-((Benzo[d][1,3]dioxol-5-yloxy)methyl)phenyl)ethyl)-4-(2-(trifluoromethyl)phenyl)piperazine]	–	32.96 ± 0.21	18.9 ± 3.68	> 50	> 50
FC(F)(F)c1ccc(N2CCN(CCc3ccc(COc4ccc5c(c4)OCO5)cc3)CC2)cc1 [Compound 26, 1-(2-(4-((Benzo[d][1,3]dioxol-5-yloxy)methyl)phenyl)ethyl)-4-(4-(trifluoromethyl)phenyl)piperazine]	–	26.8 ± 1.51	> 50	> 50	> 50
CC(=O)c1ccc(N2CCN(CCc3ccc(COc4ccc5c(c4)OCO5)cc3)CC2)cc1 [Compound 27, 1-(4-(4-(2-(4-((Benzo[d][1,3]dioxol-5-yloxy)methyl)phenyl)ethyl)piperazin-1-yl)phenyl)ethanone]	–	> 50	26.8 ± 3.01	24.9 ± 0.68	> 50
c1ccc(C2CCN(CCc3ccc(COc4ccc5c(c4)OCO5)cc3)CC2)cc1 [Compound 28, 1-(2-(4-((Benzo[d][1,3]dioxol-5-yloxy)methyl)phenyl)ethyl)-4-phenylpiperidine]	–	18.2 ± 1.88	28.5 ± 2.18	> 50	24.7 ± 2.22
OC1(c2ccccc2)CCN(CCc2ccc(COc3ccc4c(c3)OCO4)cc2)CC1 [Compound 29, 1-(2-(4-((Benzo[d][1,3]dioxol-5-yloxy)methyl)phenyl)ethyl)-4-phenylpiperidin-4-ol]	–	43 ± 7.58	19.73 ± 0.01	> 50	38.2 ± 2.45
COc1ccccc1N1CCN(CC(O)COc2cccc3ccccc23)CC1 (stereo not drawn) [naftopidil, reference compound]	–	22.4 ± 0.61	> 50	42.1 ± 0.79	34.58 ± 0.31
